Reference: patent US5258362A, “Renin inhibiting compounds” (Abbott Laboratories, priority 1992, dated 1993)

Biological target: T1, human renal renin (Homo sapiens, UniProt P00797)
T1 construct: human renal renin, free from acid proteolytic activity; from tissue; host or cells: human kidney (from the word 'renal')
T1 sequence (P00797 67-406): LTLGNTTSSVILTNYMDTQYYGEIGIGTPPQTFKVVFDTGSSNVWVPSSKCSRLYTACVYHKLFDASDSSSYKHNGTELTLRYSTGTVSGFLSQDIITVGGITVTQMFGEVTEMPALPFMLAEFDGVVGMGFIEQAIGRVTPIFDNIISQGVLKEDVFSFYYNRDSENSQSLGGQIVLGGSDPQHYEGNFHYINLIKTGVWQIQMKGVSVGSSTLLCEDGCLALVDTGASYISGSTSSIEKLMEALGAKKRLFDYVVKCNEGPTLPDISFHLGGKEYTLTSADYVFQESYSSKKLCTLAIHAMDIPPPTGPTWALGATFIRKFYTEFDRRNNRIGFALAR
Assay: Inhibition of human renal renin in vitro (angiotensin I formed, measured by radioimmunoassay)
Type: biochemical
Settings: human renal renin with renin substrate (human angiotensinogen), 37° C., pH 6.0
Description: At the end of the incubation, the amount of angiotensin I formed is measured by radioimmunoassay and the molar concentration required to cause 50% inhibition, expressed as the IC50 is calculated.

| SMILES | IC50 |
| --- | --- |
| CCCC[C@H](NC(=O)C(Cc1ccccc1)Cn1ccnc1)C(=O)N[C@@H](CC1CCCCC1)[C@@H](O)[C@H]1OC[C@@H]1CC (mixture of isomers) [Example 154, (2RS)-2-Benzyl-3-(imidazol-1-yl)propionyl-(nor)Leucine Amide of (1R,2S,2'S,3'S)-2-Amino-3-cyclohexyl-1-[3'-(ethyl)oxetan-2'-yl]-1-(hydroxy)propane] | 0.7 nM |
| CC[C@H]1CO[C@@H]1[C@H](O)[C@H](CC1CCCCC1)NC(=O)C(Cc1cnc[nH]1)NC(=O)C(Cc1ccccc1)NC(=O)OC(C)(C)C (stereo partly drawn) [Example 40, Boc-Phe-His Amide of (1R,2S,2'S,3'S)-2-Amino-3-cyclohexyl-1-[3'-(ethyl)oxetan-2'-yl]-1-(hydroxy)propane] | 0.47 nM |
| CC(C)[C@H]1CO[C@@H]1[C@H](O)[C@H](CC1CCCCC1)NC(=O)[C@H](Cc1cnc[nH]1)NC(=O)[C@H](Cc1ccccc1)NC(=O)OC(C)(C)C [Example 41, Boc-Phe-His Amide of (1R,2S,2'S,3'S)-2-Amino-3-cyclohexyl-1-hydroxy-1-[3'-(isopropyl)oxetan-2'- yl]propane] | 0.61 nM |
| CCC[C@H]1CO[C@@H]1[C@H](O)[C@H](CC1CCCCC1)NC(=O)C(Cc1cnc[nH]1)NC(=O)C(Cc1ccccc1)NC(=O)OC(C)(C)C (stereo partly drawn) [Example 43, Boc-Phe-His Amide of (1R,2S,2'S,3'S)-2-Amino-3-cyclohexyl-1-hydroxy-1-[3'-(propyl)oxetan-2'-yl]propane] | 0.38 nM |
| CC(C)C[C@H]1CO[C@@H]1[C@H](O)[C@H](CC1CCCCC1)NC(=O)[C@H](Cc1cnc[nH]1)NC(=O)[C@H](Cc1ccccc1)NC(=O)OC(C)(C)C [Example 44, Boc-Phe-His Amide of (1R,2S,2'S,3'S)-2-Amino-3-cyclohexyl-1-hydroxy-1-[3'-(isobutyl)oxetan-2'-yl]propane] | 1.1 nM |
| CC(C)(C)OC(=O)NC(Cc1ccccc1)C(=O)NC(Cc1cnc[nH]1)C(=O)N[C@@H](CC1CCCCC1)[C@@H](O)[C@@H]1CCO1 (stereo partly drawn) [Example 45, Boc-Phe-His Amide of (1R,2S,2'S)-2-Amino-3-cyclohexyl-1-hydroxy-1-(oxetan-2'-yl)propane] | 1.2 nM |
| C[C@H]1CO[C@@H]1[C@H](O)[C@H](CC1CCCCC1)NC(=O)C(Cc1cnc[nH]1)NC(=O)C(Cc1ccccc1)NC(=O)OC(C)(C)C (stereo partly drawn) [Example 46, Boc-Phe-His Amide of (1R,2S,2'S,3'S)-2-Amino-3-cyclohexyl-1-hydroxy-1-[3'-(methyl)oxetan-2'-yl]propane] | 0.51 nM |
| CC([C@H]1CO[C@@H]1[C@H](O)[C@H](CC1CCCCC1)NC(=O)[C@H](Cc1cnc[nH]1)NC(=O)[C@H](Cc1ccccc1)NC(=O)OC(C)(C)C)C(F)(F)F (stereo partly drawn) [Example 47, Boc-Phe-His Amide of (1R,2S,2'S,3'S)-2-Amino-3-cyclohexyl-1-hydroxy-1-[3'-(1,1,1-trifluoroisopropyl)oxetan-2'-yl]propane] | 1.2 nM |
| CC(C)(C)OC(=O)N[C@@H](Cc1ccccc1)C(=O)N[C@@H](Cc1cnc[nH]1)C(=O)N[C@@H](CC1CCCCC1)[C@@H](O)[C@H]1OCC1(C)C [Example 48, Boc-Phe-His Amide of (1R,2S,2'S)-2-Amino-3-cyclohexyl-1-[3',3'-(dimethyl)oxetan-2'-yl]-1-(hydroxy)propane] | 1 nM |
| CC[C@H]1CO[C@@H]1[C@H](O)[C@H](CC1CCCCC1)NC(=O)C(Cc1cscn1)NC(=O)[C@H](Cc1ccccc1)CS(=O)(=O)N1CCN(C)CC1 (stereo partly drawn) [Example 68, (2S) 2-Benzyl-3-(1-methyl-piperazin-4-ylsulfonyl)propionyl-(4-thiazolyl)alanineAmide of (1R,2S,2'S,3'S)-2-Amino-3-cyclohexyl-1-[3'-(ethyl)oxetan-2'-yl]-1-(hydroxy)propane] | 0.19 nM |
| CC[C@H]1CO[C@@H]1[C@H](O)[C@H](CC1CCCCC1)NC(=O)[C@H](Cc1cscn1)NC(=O)[C@@H](CC(=O)N1CCOCC1)Cc1ccccc1 [Example 69, (2R)-2-Benzyl-3-(morpholinocarbonyl)propionyl-(4-thiazolyl)alanine Amide of (1R,2S,2'S,3'S)-2-Amino-3-cyclohexyl-1-[3'-(ethyl)oxetan-2'-yl]-1-(hydroxy)propane] | 0.25 nM |
| CC[C@H]1CO[C@@H]1[C@H](O)[C@H](CC1CCCCC1)NC(=O)C(Cc1cscn1)NC(=O)[C@@H](CC(=O)N1CCN(C)CC1)Cc1ccccc1 (stereo partly drawn) [Example 70, (2R)-2-Benzyl-3-[(4-methylpiperazin-1-yl)carbonyl]propionyl-(4-thiazolyl)alanine Amide of (1R,2S,2'S,3'S)-2-Amino-3-cyclohexyl-1-[3'-(ethyl)oxetan-2'-yl]-1-(hydroxy)propane] | 0.2 nM |
| CC[C@H]1CO[C@@H]1[C@H](O)[C@H](CC1CCCCC1)NC(=O)[C@H](Cc1cscn1)NC(=O)[C@@H](CC(=O)N(C)CCc1ccccn1)Cc1ccccc1 [Example 71, (2R)-2-Benzyl-3-[(2-pyridin-2-ylethyl)methylaminocarbonyl]propionyl-(4-thiazolyl)alanine Amide of (1R,2S,2'S,3'S)-2-Amino-3-cyclohexyl-1-[3'-(ethyl)oxetan-2'-yl]-1-(hydroxy)propane] | 0.27 nM |
| CCCC[C@H](O[C@@H](Cc1ccccc1)C(=O)N1CCC(OCOC)CC1)C(=O)N[C@@H](CC1CCCCC1)[C@@H](O)[C@H]1OC[C@@H]1C(C)C [Example 72, (2S)-[(1S)-[(Methoxymethoxy)piperidin-1-yl]carbonyl-2-phenylethoxy]hexanoicAcid Amide of (1R,2S,2'S,3'S)-2-Amino-3-cyclohexyl-1-[3'-(isopropyl)oxetan-2'-yl]-1-(hydroxy)propane] | 0.8 nM |
| CC[C@H]1CO[C@@H]1[C@H](O)[C@H](CC1CCCCC1)NC(=O)C(Cc1cscn1)NC(=O)[C@H](Cc1ccccc1)Cn1ccnc1 (stereo partly drawn) [Example 76, (2R)-2-Benzyl-3-(imidazol-1-yl)propionyl-(4-thiazolyl)alanine Amide of (1R,2S,2'S,3'S)-1-Amino-3-cyclohexyl-1-[3'-(ethyl)oxetan-2'-yl]-1-(hydroxy)propane] | 0.28 nM |
| CCCC[C@H](NC(=O)[C@@H](CC(=O)N1CCN(C)CC1)Cc1ccccc1)C(=O)N[C@@H](CC1CCCCC1)[C@@H](O)[C@H]1OC[C@@H]1CC [Example 155, (2R)-2-Benzyl-3-(4-methylpiperazin-1-ylcarbonyl)propionyl(nor)Leucine Amide of (1R,2S,2'S,3'S)-2-Amino-3-cyclohexyl-1-[3'-(ethyl)oxetan-2'-yl]-1-(hydroxy)propane] | 0.37 nM |
| CC[C@H]1CO[C@@H]1[C@H](O)[C@H](CC1CCCCC1)NC(=O)[C@H](CC(C)C)NC(=O)[C@@H](CC(=O)N1CCN(C)CC1)Cc1ccccc1 [Example 163, (2R)-2-Benzyl-3-(4-methylpiperazin-1-ylcarbonyl)propionyl-leucine Amide of (1R,2S,2'S,3'S)-2-Amino-3-cyclohexyl-1-[3'-(ethyl)oxetan-2'-yl]-1-(hydroxy)propane] | 0.51 nM |
| CCOC(=O)NC(Cc1ccccc1)C(=O)NC(CC(C)C)C(=O)N[C@@H](CC1CCCCC1)[C@@H](O)[C@H]1OC[C@@H]1CC (stereo partly drawn) [Example 164, Ethoxycarbonyl-Phe-Leu Amide of (1R,2S,2'S,3'S)-2-Amino-3-cyclohexyl-1-[3'-(ethyl)oxetan-2'-yl]-1-(hydroxy)propane] | 0.46 nM |
| CC[C@H]1CO[C@@H]1[C@H](O)[C@H](CC(C)C)NC(=O)C(Cc1cnc[nH]1)NC(=O)C(Cc1ccccc1)NC(=O)OC(C)(C)C (stereo partly drawn) [Example 171, Boc-Phe-His Amide of (1R,2S,2'S,3'S)-2-Amino-1-[3'-(ethyl)oxetan-2'-yl]-1-hydroxy-4-(methyl)pentane] | 0.5 nM |
| CC[C@H]1CO[C@@H]1[C@H](O)[C@H](CC(C)C)NC(=O)C(Cc1cscn1)NC(=O)[C@H](Cc1ccccc1)CS(=O)(=O)N1CCN(C)CC1 (stereo partly drawn) [Example 178, (2S) 2-Benzyl-3-(1-methyl-piperazin-4-ylsulfonyl)propionyl-(4-thiazolyl)alanineAmide of (1R,2S,2'S,3'S)-2-Amido-1-[3'-(ethyl)oxetan-2'-yl]-1-hydroxy-4-(methyl)pentane] | 0.38 nM |
| CC[C@H]1CO[C@@H]1[C@H](O)[C@H](CC(C)C)NC(=O)C(Cc1cscn1)NC(=O)[C@H](Cc1ccccc1)Cn1ccnc1 (stereo partly drawn) [Example 181, (2R)-2-Benzyl-3-(imidazol-1-yl)propionyl-(4-thiazolyl)alanine Amide of (1R,2S,2S',3'S)-2-Amino-1-(3'-(ethyl)oxetan-2'-yl]-1-hydroxy-4-(methyl)pentane] | 3.7 nM |
| CC[C@H]1CO[C@@H]1[C@H](O)[C@H](CC1CCCCC1)NC(=O)[C@H](CC(C)C)NC(=O)[C@H](Cc1ccccc1)Cn1ccnc1 [Example 182, (2R)-2-Benzyl-3-(imidazol-1-yl)propionyl-Leucine Amide of (1R,2S,2'S,3'S)-2-Amino-3-cyclohexyl-1-[3'-(ethyl)oxetan-2'-yl]-1-(hydroxy)propane] | 0.65 nM |
| CC[C@H]1CO[C@@H]1[C@H](O)[C@H](CC1CCCCC1)NC(=O)[C@H](CC(C)C)NC(=O)C(Cc1ccccc1)Cc1ccccc1 [Example 183, Dibenzylacetyl-Leucine Amide of (1R,2S,2'S,3'S)-2-Amino-3-cyclohexyl-1-[3'-(ethyl)oxetan-2'-yl]-1-(hydroxy)propane] | 1.2 nM |
| CCCCC(NC(=O)CCc1ccccc1)C(=O)N[C@@H](CC1CCCCC1)[C@@H](O)[C@H]1OC[C@@H]1CC (stereo partly drawn) [Example 186, Dihydrocinnamoyl-(nor)Leucine Amide of (1R,2S,2'S,3'S)-2-Amino-3-cyclohexyl-1-[3'-(ethyl)oxetan-2'-yl]-1-(hydroxy)propane] | 3.3 nM |
